Measurements: patent publication US5043332A, “Novel 11β-substituted -19-nor-steriods” (priority 1981, dated 1991)

What was measured:
[1] = target: T1, Progestogen receptor of the uterus of rabbits (Oryctolagus cuniculus, UniProt P06186); assay: Progestogen receptor binding (displacement of tritiated product R); parameters: species or system rabbit; conditions: for affinity for progestogen receptors (in words): conclusion
T1 construct: The uterus was removed, weighed and homogenized at 0° C; from tissue; host or cells: rabbit uterus, 105,000 g supernatant (estradiol-primed immature rabbits)
T1 sequence (P06186 1-930): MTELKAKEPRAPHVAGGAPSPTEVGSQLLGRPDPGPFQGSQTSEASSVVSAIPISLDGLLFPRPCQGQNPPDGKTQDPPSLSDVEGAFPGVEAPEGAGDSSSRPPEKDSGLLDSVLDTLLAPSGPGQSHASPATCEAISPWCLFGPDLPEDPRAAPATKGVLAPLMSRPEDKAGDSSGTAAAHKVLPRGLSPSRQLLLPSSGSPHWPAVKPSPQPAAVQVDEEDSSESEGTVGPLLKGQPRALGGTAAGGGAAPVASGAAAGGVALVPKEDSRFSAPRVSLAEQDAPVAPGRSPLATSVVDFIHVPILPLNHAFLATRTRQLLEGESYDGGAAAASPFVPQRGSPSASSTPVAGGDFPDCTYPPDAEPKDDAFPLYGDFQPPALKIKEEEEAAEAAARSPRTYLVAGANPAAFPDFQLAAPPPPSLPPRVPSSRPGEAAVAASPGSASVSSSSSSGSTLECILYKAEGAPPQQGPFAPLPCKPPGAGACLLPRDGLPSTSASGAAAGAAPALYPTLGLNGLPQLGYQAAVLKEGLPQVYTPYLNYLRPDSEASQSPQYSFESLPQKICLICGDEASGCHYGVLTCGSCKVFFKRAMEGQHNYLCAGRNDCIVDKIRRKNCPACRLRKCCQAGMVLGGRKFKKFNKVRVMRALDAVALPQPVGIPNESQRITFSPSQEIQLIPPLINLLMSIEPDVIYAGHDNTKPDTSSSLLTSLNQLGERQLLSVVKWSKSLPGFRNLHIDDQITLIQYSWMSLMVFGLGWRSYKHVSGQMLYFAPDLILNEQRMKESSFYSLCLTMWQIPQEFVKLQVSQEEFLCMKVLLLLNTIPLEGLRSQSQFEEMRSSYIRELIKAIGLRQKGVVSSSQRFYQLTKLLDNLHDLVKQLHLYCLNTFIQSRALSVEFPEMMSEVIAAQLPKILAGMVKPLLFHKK
Method: C. Progestogen receptor of the uterus of rabbits
Immature rabbits weighing about 1 kg received a cutaneous application of 25 μg of estradiol and the animals were killed 5 days later. The uterus was removed, weighed and homogenized at 0° C. with a polytetrafluoroethylene-glass Potter, in a buffered TS solution [Tris 10. mM, 0.25M of saccharose, HCl-pH of 7.4] with 1 g of tissue per 50 ml of TS. […] The concentration of tied tritiated R (B) was then measured for each incubate by the technique of adsoprtion on carbon-dextran.
(§1) The calculation of the relative affinity of […] (ARL) was identical for all of the above receptor tests. One traced the following two curves: the percentage of tied tritiated hormone B/T as a function of the logarithm of the cold hormone concentration and B/T as a function of the logarithm of the concentration of the cold test product. One determined the line of the equation. [formula]
(§2) The intersection of the I50 line and the curves permits one to determine the concentrations of the cold hormone of the reference (CH) and the cold test compound (CX) which inhibit by 50% the tieing of tritiated hormone with the receptor. The relative affinity of tieing (ARL) of the test product was determined by the equation: [formula]

[2] = target: T2, Mineralcorticoidal receptor of kidneys of the rat (Rattus norvegicus, UniProt P22199); assay: Mineralcorticoidal receptor binding (displacement of tritiated aldosterone)
T2 construct: from tissue; host or cells: rat kidney, 105,000 g supernatant (adrenalectomized male Sprague-Dawley rats)
T2 sequence (P22199 1-981): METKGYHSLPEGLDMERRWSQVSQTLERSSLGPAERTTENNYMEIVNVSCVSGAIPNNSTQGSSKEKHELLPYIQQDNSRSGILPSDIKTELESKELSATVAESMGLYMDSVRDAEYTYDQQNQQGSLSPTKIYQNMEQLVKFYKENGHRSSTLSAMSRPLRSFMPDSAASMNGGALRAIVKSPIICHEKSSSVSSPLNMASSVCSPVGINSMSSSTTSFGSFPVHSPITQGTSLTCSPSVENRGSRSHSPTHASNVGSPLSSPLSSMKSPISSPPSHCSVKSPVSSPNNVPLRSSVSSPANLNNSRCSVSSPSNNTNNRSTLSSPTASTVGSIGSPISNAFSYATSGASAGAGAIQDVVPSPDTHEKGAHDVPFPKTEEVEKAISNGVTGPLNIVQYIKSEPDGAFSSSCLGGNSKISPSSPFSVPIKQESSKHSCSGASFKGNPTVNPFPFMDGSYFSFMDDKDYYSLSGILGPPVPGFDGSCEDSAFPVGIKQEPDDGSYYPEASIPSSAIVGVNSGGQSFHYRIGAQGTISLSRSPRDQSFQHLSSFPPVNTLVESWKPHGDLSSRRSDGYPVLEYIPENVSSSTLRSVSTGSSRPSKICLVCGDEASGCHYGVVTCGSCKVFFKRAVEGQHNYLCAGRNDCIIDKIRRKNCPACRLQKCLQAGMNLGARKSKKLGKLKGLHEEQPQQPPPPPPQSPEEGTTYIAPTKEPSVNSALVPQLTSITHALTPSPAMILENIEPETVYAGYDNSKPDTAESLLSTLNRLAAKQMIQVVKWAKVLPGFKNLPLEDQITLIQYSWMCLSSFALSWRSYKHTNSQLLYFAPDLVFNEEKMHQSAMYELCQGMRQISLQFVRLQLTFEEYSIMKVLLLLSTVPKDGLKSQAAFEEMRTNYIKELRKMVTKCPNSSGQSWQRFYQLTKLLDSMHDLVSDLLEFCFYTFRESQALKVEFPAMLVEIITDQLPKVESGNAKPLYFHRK
Method: A. Mineralcorticoidal receptor of kidneys of the rat
Male Sprague-Dawley EOPS rats weighing 140 to 160 g surrenalectomized 4 to 8 days previously were killed and their kidneys were perfused in situ with 50 ml of a buffer (10 mM of Tris 0.25M of Saccharose and sufficient hydrochloric acid for a pH of 7.4). The kidneys were then removed, decapsulated and homogenized at 0° C. with a polytetrafluoroethylene-glass Potter (1 g of tissue per 3 ml of buffer). The homogenate was centrifuged for 10 minutes at 800 g at 9° C.
After elimination of the fixation of tritiated aldosterone with glucocorticoid receptor, 21-methyl-Δ^1,4,6 -pregnatriene-20-yne-11β,17β-diol-3-one fixed only with the glucocorticoid receptor was added to the supernatant at a final concentration of 10^-6 M. The suprenatant was ultracentrifuged at 105,000 g for 60 minutes and 0° C. and aliquoits of the resulting surnageant were incubated at 0° C. with a constant concentration (T) of tritiated aldosterone in the presence of increasing concentrations (0-2500×10^-9 M) of cold aldosterone or the cold test product. After a time (t) of incubation, the concentration of tied tritiated aldosterone (B) was measured by the technique of adsoprtion on carbon dextran.
as §1, §2

[3] = second table, incubation 2 H at 0° C.
[4] = second table, incubation 24 H at 0° C.

SMILES	relative affinity of tieing (ARL), Progestogen ([1]; incubation 2 H at 0° C.)	relative affinity of tieing (ARL), Progestogen ([1]; incubation 24 H at 0° C.)	relative affinity of tieing (ARL), Mineralocorticoid ([2]; incubation 1 H at 0° C.)	relative affinity of tieing (ARL), Mineralocorticoid ([2]; incubation 24 H at 0° C.)	affinity for progestogen receptors (in words) [1]	relative affinity of tieing (ARL), Progestogen [1, 3]	relative affinity of tieing (ARL), Progestogen [1, 4]	relative affinity of tieing (ARL), Mineralocorticoid [2, 4]
CC#C[C@]1(OC(C)=O)CC[C@H]2[C@@H]3CCc4cc(O)ccc4[C@H]3[C@@H](c3ccc(N(C)C)cc3)C[C@@]21C [2 (17 OAc), 11β-(4-dimethylaminophenyl)-17α-(prop-1-ynyl)-17β-acetoxy-Δ^1,3,5(10) -estratriene-3-ol]	5	52	< 0,1	< 0,1	–	–	–	–
CC#C[C@]1(O)CC[C@H]2[C@@H]3CCC4=CC(=O)[C@H](C)CC4=C3[C@@H](c3ccc(N(C)C)cc3)C[C@@]21C [5 (2α), 2α-methyl-11β-(4-dimethylaminophenyl)-17α-(prop-1-ynyl)-Δ^4,9-estradiene-17β-ol-3-one]	40	39	< 0,1	< 0,1	–	–	–	–
CC#C[C@]1(O)CC[C@H]2[C@@H]3CCC4=CC(=O)[C@@H](C)CC4=C3[C@@H](c3ccc(N(C)C)cc3)C[C@@]21C [5 (2β), 2-methyl-11β-(4-dimethylaminophenyl)-17α-(prop-1-ynyl)-Δ^4,9-estradiene-17β-ol-3-one]	44	44	< 0,1	< 0,1	–	–	–	–
CC#C[C@]1(O)CC[C@H]2[C@@H]3CCC4=CC(=O)C(C)(C)CC4=C3[C@@H](c3ccc(N(C)C)cc3)C[C@@]21C [Example 1, 2,2-dimethyl-11β-(4-dimethylaminophenyl)-17α-(prop-1-ynyl)-Δ^4,9-estradiene-17β-ol-3-one]	4	4	< 0,1	< 0,1	–	–	–	–
CC#C[C@]1(O)CC[C@H]2[C@@H]3CCC4=CC(=O)[C@H](C)CC4=C3[C@@H](c3ccc(N(C)C)cc3)C[C@@]21C [Example 5, 2α-methyl-11β-(4-dimethylaminophenyl)-17α-(prop-1-ynyl)-Δ^4,9-estradiene-17β-ol-3-one]	–	–	–	–	very remarkable affinity	–	–	–
CC#C[C@]1(O)CC[C@H]2[C@@H]3CCC4=CC(=O)C(C#N)(C#N)CC4=C3[C@@H](c3ccc(N(C)C)cc3)C[C@@]21C [Example 9, 2,2-dicyano-11β-(4-dimethylaminophenyl)-17α-(prop-1-ynyl)-Δ^4,9-estradiene-17β-ol-3-one]	< 0,1	< 0,1	< 0,1	< 0,1	–	–	–	–
CC#C[C@]1(O)CC[C@H]2[C@@H]3CCC4=C(CCC(=O)C4)[C@H]3[C@@H](c3ccc(N(C)C)cc3)C[C@@]21C [Example 10, 11β-(4-dimethylaminophenyl)-17α-(prop-1-ynyl)-Δ^5(10) -estrene-17β-ol-3-one]	27	62	1,5	< 0,1	–	–	–	–
CC#C[C@]1(O)CC[C@H]2[C@@H]3CCC4=CC(=O)CCC4=C3[C@@H](c3ccc(N(C)C)cc3)C[C@@]21C [Example 19, 11β-[4-(N,N-dimethylamino)-phenyl]-17α-(prop-1-ynyl)-Δ^4,9-estradiene-17β-ol-3-one]	–	–	–	–	very remarkable affinity	–	–	–
C#C[C@@]1(O)CC[C@H]2[C@@H]3CCC4=CC(=O)CCC4=C3[C@@H](c3ccc(N(C)C)cc3)C[C@@]21C [Example 21, 11β-[4-(N,N-dimethylamino)-phenyl]-17β-ethynyl-Δ^4,9-estradiene-17α-ol-3-one]	–	–	–	–	–	10	4,3	0,8
C=C(C)C#C[C@]1(O)CC[C@H]2[C@@H]3CCC4=CC(=O)CCC4=C3[C@@H](c3ccc(N(C)C)cc3)C[C@@]21C [Example 23, 11β-[4-(N,N-dimethylamino)-phenyl]-23-methyl-19,21-dinor-17α-Δ^4,9,23-cholatriene-20-yn-17β-ol-3-one]	–	–	–	–	–	81	268	0
CN(C)c1ccc([C@H]2C[C@@]3(C)[C@@H](CC[C@@]3(O)C#Cc3ccccc3)[C@@H]3CCC4=CC(=O)CCC4=C32)cc1 [Example 29, 11β-[4-(N,N-dimethylamino)-phenyl]-21-phenyl-19-nor-17α-Δ^4,9-pregnadiene-20-yne-17β-ol-3-one]	–	–	–	–	–	41	250	–
CC#C[C@]1(O)CC[C@H]2[C@@H]3CCC4=CC(=O)CCC4=C3[C@@H](c3ccc([N+](C)(C)[O-])cc3)C[C@@]21C [Example 35, N-oxide of 11β-[4-(N,N-dimethylamino)-phenyl]-17α-(prop-1-ynyl)-Δ^4,9-estradiene-17β-ol-3-one]	–	–	–	–	–	1,1	2,5	–
